Experimental data from patent publication US8461150B2, “Chalcone linked pyrrolo[2,1-c][1, 4]benzodiazepine hybrids as potential anticancer agents and process for the preparation thereof” (Council of Scientific & Industrial Research, priority 2008, dated 2013).

Key:
Type in all cases: cell-based, human
CNS cancer cell lines = assay: NCI in vitro anticancer screen, SRB assay, 48 h, panel average; details: average of six to eight cell lines, 48 h exposure
Procedure: (§1) Biological Activity: The in vitro cell line studies were carried out at the National Cancer Institute, Maryland, USA.
(§2) Cytotoxicity: • The compounds 6b) 7-Methoxy-8-{4-[1-(4-fluorophenyl)-3-(4-hydroxy-3-methoxyphenyl)-2-propen-1-one]butyl}-oxy-(11aS)-1,2,3,11a-5H-pyrrolo[2,1-c][1,4]benzodiazepin-5-one; • (6c) 7-Methoxy-8-{5-[1-(4-fluorophenyl)-3-(4-hydroxy-3-methoxyphenyl)-2-propen-1-one]pentyl}-oxy-(11aS)-1,2,3,11a-5H-pyrrolo[2,1-c][1,4]benzodiazepin-5-one; • (6g) 7-Methoxy-8-{3-[1-(2-hydroxyphenyl)-3-(4-hydroxy-3-methoxyphenyl)-2-propen-1-one]propyl}-oxy-(11aS)-1,2,3,11a-5H-pyrrolo[2,1-c][1,4]benzodiazepin-5-one; • (10a) 7-Methoxy-8-{3-[3-(4-hydroxy-3-methoxyphenyl)-1-(2,4-dimethyl-3-quinolyl)-2-propen-1-one]propyl}-oxy-(11aS)-1,2,3,11a-5H-pyrrolo[2,1-c][1,4]benzodiazepin-5-one • (10b) 7-Methoxy-8-{4-[3-(4-hydroxy-3-methoxyphenyl)-1-(2,4-dimethyl-3-quinolyl)-2-propen-1-one]butyl}-oxy-(11aS)-1,2,3,11a-5H-pyrrolo[2,1-c][1,4]benzodiazepin-5-one; were evaluated for in vitro anticancer activity against […] derived from […] (leukemia, ovarian, renal, melanoma, CNS, colon, prostate, lung, cervix and breast cancer) as shown in (Table 1, 2 and 3)
(§3) 6b, 6c, 6g, 10a and 10b were evaluated for in vitro anticancer activity against sixty human tumour cells derived from nine cancer types (leukemia, non-small-cell lung, colon, CNS, melanoma, ovarian, prostate, renal and breast cancer) as shown in (Table 1 and 2). For the compound, dose response curves for each cell line were measured at a minimum of five concentrations at 10 fold dilutions. A protocol of 48 h continuous drug exposure was used and a sulforhodamine B (SRB) protein assay was used to estimate cell viability or growth. The concentration causing 50% cell growth inhibition (GI50), total cell growth inhibition (TGI 0% growth) and 50% cell death (LC50, −50% growth) compared with the control was calculated.
(§4) Each cancer type represents the average of six to eight different cancer cell lines.

[1] = tested on: Melanoma cancer cell lines; assay: as above; details: average of six to eight cell lines, 48 h exposure
Procedure: as §1, §2, §3, §4

[2] = tested on: Non-small cell lung cancer cell lines; assay: as above; details: average of six to eight cell lines, 48 h exposure
Procedure: as §1, §2, §3, §4

[3] = tested on: Leukemia cancer cell lines; assay: as above; details: average of six to eight cell lines, 48 h exposure
Procedure: as §1, §2, §3, §4

[4] = tested on: Ovarian cancer cell lines; assay: as above; details: average of six to eight cell lines, 48 h exposure
Procedure: as §1, §2, §3, §4

Colon cancer cell lines = assay: as above; details: average of six to eight cell lines, 48 h exposure
Procedure: as §1, §2, §3, §4

Renal cancer cell lines = assay: as above; details: average of six to eight cell lines, 48 h exposure
Procedure: as §1, §2, §3, §4

[5] = tested on: Prostate cancer cell lines; assay: as above; details: average of six to eight cell lines, 48 h exposure
Procedure: as §1, §2, §3, §4

Breast cancer cell lines = assay: as above; details: average of six to eight cell lines, 48 h exposure
Procedure: as §1, §2, §3, §4

UO-31 (Renal) = assay: Cytotoxicity in selected cancer cell lines (SRB, 48 h)
Procedure: as §1, §3
(§5) Each cancer type represents the average of six to nine different cancer cell lines. In vitro evaluation of cytotoxic activity. The compound 6b, 6c, 6g 10a and 10b were evaluated for in vitro anticancer activity against nine human tumour cells derived from six cancer types (leukemia, colon, prostate, melanoma, ovarian, lung, cervix and breast cancer) as shown in Table 3. […] Compounds 6b, 6c, 6g, 10a and 10b have been evaluated for their in vitro cytotoxicity in selected human cancer cell lines of colon (Colo205), lung (NCI-H522, NCI-H226), colon (colo-205), prostate (DU145, PC3), ovarian (IGROV1, HT1080), and breast (MDA-MB-435, Zr-75-1), melanoma (LOXMIVI, VACC-62, SK-MEL-5) origin. A protocol of 48 h continuous drug exposure has been used and an […] has been used to estimate cell viability or growth. The results are expressed as percent of cell growth determined relative to that of untreated control cells

SW-620 (Colon) = assay: as above
Procedure: as §1, §3, §5

[6] = tested on: NCI-H226 (Non-small cell lung); assay: as above
Procedure: as §1, §3, §5

RPMI-8226 (Leukemia) = assay: as above
Procedure: as §1, §3, §5

ACHN (Renal) = assay: as above
Procedure: as §1, §3, §5

HL-60(TB) (Leukemia) = assay: as above
Procedure: as §1, §3, §5

NCI/ADR-RES (Breast) = assay: as above
Procedure: as §1, §3, §5

HCT-116 (Colon) = assay: as above
Procedure: as §1, §3, §5

[7] = tested on: NCI-H23 (Non-small cell lung); assay: as above
Procedure: as §1, §3, §5

SF-539 (CNS) = assay: as above
Procedure: as §1, §3, §5

OVCAR-3 (Ovarian) = assay: as above
Procedure: as §1, §3, §5

UACC-62 (Melanoma) = assay: as above
Procedure: as §1, §3, §5

MALME-3M (Melanoma) = assay: as above
Procedure: as §1, §3, §5

CAKI-1 (Renal) = assay: as above
Procedure: as §1, §3, §5

HCT-15 (Colon) = assay: as above
Procedure: as §1, §3, §5

A498 (Renal) = assay: as above
Procedure: as §1, §3, §5

CCRF-CEM (Leukemia) = assay: as above
Procedure: as §1, §3, §5

SK-MEL-5 (Melanoma) = assay: as above
Procedure: as §1, §3, §5

UACC-257 (Melanoma) = assay: as above
Procedure: as §1, §3, §5

786-0 (Renal) = assay: as above
Procedure: as §1, §3, §5

U251 (CNS) = assay: as above
Procedure: as §1, §3, §5

With COc1cc(C=CC(=O)c2ccc(F)cc2)ccc1OCCCCOc1cc2c(cc1OC)C(=O)N1CCC[C@H]1C=N2 [6b, 7-Methoxy-8-{4-[1-(4-fluorophenyl)-3-(4-hydroxy-3-methoxyphenyl)-2-propen-1-one]butyl}-oxy-(11aS)-1,2,3,11a-5H-pyrrolo[2,1-c][1,4]benzodiazepin-5-one] the “Log GI50 (concentration in mol/L causing 50% growth inhibition)” value (CNS cancer cell lines) was −5.91 mol/L, the “Log GI50 (concentration in mol/L causing 50% growth inhibition)” value [1] was −6.65 mol/L and the “Log GI50 (concentration in mol/L causing 50% growth inhibition)” value [2] was −6.84 mol/L. The “Log GI50 (concentration in mol/L causing 50% growth inhibition)” value [3] was −6.84 mol/L, the “Log GI50 (concentration in mol/L causing 50% growth inhibition)” value [4] was −5.56 mol/L and the “Log GI50 (concentration in mol/L causing 50% growth inhibition)” value (Colon cancer cell lines) was −6.53 mol/L. The “Log GI50 (concentration in mol/L causing 50% growth inhibition)” value (Renal cancer cell lines) was −6.67 mol/L, the “Log GI50 (concentration in mol/L causing 50% growth inhibition)” value [5] was −5.63 mol/L and the “Log GI50 (concentration in mol/L causing 50% growth inhibition)” value (Breast cancer cell lines) was −6.57 mol/L. The GI50 (UO-31 (Renal)) was 19.2 µM, the GI50 (SW-620 (Colon)) was 13.5 µM and the GI50 [6] was 14 µM. For the same compound, the GI50 (RPMI-8226 (Leukemia)) was 13 µM, the GI50 (ACHN (Renal)) was 43.4 µM and the GI50 (HL-60(TB) (Leukemia)) was 29 µM. The GI50 (NCI/ADR-RES (Breast)) was 13.8 µM, the GI50 (HCT-116 (Colon)) was 11.2 µM and the GI50 [7] was 19.2 µM. It also gave a GI50 (SF-539 (CNS)) of 29.6 µM, a GI50 (OVCAR-3 (Ovarian)) of 37 µM and a GI50 (UACC-62 (Melanoma)) of 10 µM. The GI50 (MALME-3M (Melanoma)) was 18.2 µM, the GI50 (CAKI-1 (Renal)) was 13.6 µM and the GI50 (HCT-15 (Colon)) was 28.5 µM. For the same compound, the GI50 (A498 (Renal)) was 26.1 µM, the GI50 (CCRF-CEM (Leukemia)) was 16 µM and the GI50 (SK-MEL-5 (Melanoma)) was 10 µM. It also gave a GI50 (UACC-257 (Melanoma)) of 70.9 µM, a GI50 (786-0 (Renal)) of 19.8 µM and a GI50 (U251 (CNS)) of 14.8 µM.

In the case of COc1cc(C=CC(=O)c2ccc(F)cc2)ccc1OCCCCCOc1cc2c(cc1OC)C(=O)N1CCC[C@H]1C=N2 [6c, 7-Methoxy-8-{5-[1-(4-fluorophenyl)-3-(4-hydroxy-3-methoxyphenyl)-2-propen-1-one]pentyl}-oxy-(11aS)-1,2,3,11a-5H-pyrrolo[2,1-c][1,4]benzodiazepin-5-one], the “Log GI50 (concentration in mol/L causing 50% growth inhibition)” value (CNS cancer cell lines) is reported as −5.68 mol/L, the “Log GI50 (concentration in mol/L causing 50% growth inhibition)” value [1] is reported as −6.38 mol/L and the “Log GI50 (concentration in mol/L causing 50% growth inhibition)” value [2] is reported as −6.38 mol/L. For the same compound, the “Log GI50 (concentration in mol/L causing 50% growth inhibition)” value [3] was −6.59 mol/L, the “Log GI50 (concentration in mol/L causing 50% growth inhibition)” value [4] was −4.60 mol/L and the “Log GI50 (concentration in mol/L causing 50% growth inhibition)” value (Colon cancer cell lines) was −6.76 mol/L. The “Log GI50 (concentration in mol/L causing 50% growth inhibition)” value (Renal cancer cell lines) was −6.39 mol/L, the “Log GI50 (concentration in mol/L causing 50% growth inhibition)” value [5] was −5.05 mol/L and the “Log GI50 (concentration in mol/L causing 50% growth inhibition)” value (Breast cancer cell lines) was −6.31 mol/L. For the same compound, the GI50 (UO-31 (Renal)) was 21.1 µM, the GI50 (SW-620 (Colon)) was 18.8 µM and the GI50 [6] was 16.5 µM. It also gave a GI50 (RPMI-8226 (Leukemia)) of 16.4 µM, a GI50 (ACHN (Renal)) of 42 µM and a GI50 (HL-60(TB) (Leukemia)) of 28.2 µM. It also gave a GI50 (NCI/ADR-RES (Breast)) of 17.4 µM, a GI50 (HCT-116 (Colon)) of 21 µM and a GI50 [7] of 15.8 µM. The GI50 (SF-539 (CNS)) was 30.3 µM, the GI50 (OVCAR-3 (Ovarian)) was 34.3 µM and the GI50 (UACC-62 (Melanoma)) was 15.1 µM. It also gave a GI50 (MALME-3M (Melanoma)) of 24.2 µM, a GI50 (CAKI-1 (Renal)) of 15.8 µM and a GI50 (HCT-15 (Colon)) of 29.3 µM. The GI50 (A498 (Renal)) was 20.1 µM, the GI50 (CCRF-CEM (Leukemia)) was 25.1 µM and the GI50 (SK-MEL-5 (Melanoma)) was 20.9 µM. For the same compound, the GI50 (UACC-257 (Melanoma)) was 22.9 µM, the GI50 (786-0 (Renal)) was 18.4 µM and the GI50 (U251 (CNS)) was 15.2 µM.

For COc1cc(C=CC(=O)c2c(C)nc3ccccc3c2C)ccc1OCCCOc1cc2c(cc1OC)C(=O)N1CCC[C@H]1C=N2 [10a, 7-Methoxy-8-{3-[3-(4-hydroxy-3-methoxyphenyl)-1-(2,4-dimethyl-3-quinolyl)-2-propen-1-one]propyl}-oxy-(11aS)-1,2,3,11a-5H-pyrrolo[2,1-c][1,4]benzodiazepin-5-one], the “Log GI50 (concentration in mol/L causing 50% growth inhibition)” value (CNS cancer cell lines) was −6.61 mol/L, the “Log GI50 (concentration in mol/L causing 50% growth inhibition)” value [1] was −6.38 mol/L and the “Log GI50 (concentration in mol/L causing 50% growth inhibition)” value [2] was −6.79 mol/L. The “Log GI50 (concentration in mol/L causing 50% growth inhibition)” value [3] was −6.88 mol/L, the “Log GI50 (concentration in mol/L causing 50% growth inhibition)” value [4] was −5.10 mol/L and the “Log GI50 (concentration in mol/L causing 50% growth inhibition)” value (Colon cancer cell lines) was −6.76 mol/L. For the same compound, the “Log GI50 (concentration in mol/L causing 50% growth inhibition)” value (Renal cancer cell lines) was −6.39 mol/L, the “Log GI50 (concentration in mol/L causing 50% growth inhibition)” value [5] was −5.05 mol/L and the “Log GI50 (concentration in mol/L causing 50% growth inhibition)” value (Breast cancer cell lines) was −6.31 mol/L. It also gave a GI50 (UO-31 (Renal)) of 21.6 µM, a GI50 (SW-620 (Colon)) of 26.6 µM and a GI50 [6] of 10.8 µM. The GI50 (RPMI-8226 (Leukemia)) was 15 µM, the GI50 (ACHN (Renal)) was 32 µM and the GI50 (HL-60(TB) (Leukemia)) was 25.2 µM. The GI50 (NCI/ADR-RES (Breast)) was 17.6 µM, the GI50 (HCT-116 (Colon)) was 21 µM and the GI50 [7] was 24.1 µM. The GI50 (SF-539 (CNS)) was 30.3 µM, the GI50 (OVCAR-3 (Ovarian)) was 24.9 µM and the GI50 (UACC-62 (Melanoma)) was 15.1 µM. For the same compound, the GI50 (MALME-3M (Melanoma)) was 24.2 µM, the GI50 (CAKI-1 (Renal)) was 15.8 µM and the GI50 (HCT-15 (Colon)) was 29.7 µM. The GI50 (A498 (Renal)) was 20.1 µM, the GI50 (CCRF-CEM (Leukemia)) was 12.5 µM and the GI50 (SK-MEL-5 (Melanoma)) was 20.9 µM. The GI50 (UACC-257 (Melanoma)) was 22.9 µM, the GI50 (786-0 (Renal)) was 17.3 µM and the GI50 (U251 (CNS)) was 19.8 µM.
